Experimental data as given in ChEMBL document CHEMBL5390201, “The Natural Alkaloid (-)-N-Hydroxyapiosporamide Suppresses Colorectal Tumor Progression as an NF-κB Pathway Inhibitor by Targeting the TAK1-TRAF6 Complex” (J Nat Prod, 2023).
Active and inactive are the calls of the source. The rule behind the calls is not given here.

Legend:
[1] = Toxicity in athymic nude BALB/c mouse xenografted with human HCT-116 cells assessed as pathological changes in heart at 5 to 15 mg/kg, ip administered every other day and measured after 14 days by hematoxylin and eosin staining-based microscopic analysis; type: organism-based; settings: in vivo, 336 h, dose 5-15 mg/kg, time 14 day
[2] = Toxicity in athymic nude BALB/c mouse assessed as change in serum creatine kinase level at 5 to 15 mg/kg, ip administered every other day and measured after 14 days; type: organism-based; settings: in vivo, 336 h, dose 5-15 mg/kg, time 14 day
[3] = tested on: HT-29; test: Induction of apoptosis in human HT-29 cells assessed as necrotic cells at 0.25 uM incubated for 24 hrs by Annexin V-FITC/PI staining based flow cytometric analysis (reference value: 0.14 %); type: functional
[4] = Cmax in Sprague-Dawley rat at 10 mg/kg, iv measured for 5 mins by HPLC-MS/MS analysis; type: ADME, organism-based; design: time 5 min, dose 10 mg/kg, route iv; settings: in vivo
[5] = tested on: HCT-116; test: Induction of cell cycle arrest in human HCT-116 cells assessed as decrease in cyclin B protein expression upto 10 uM incubated for 24 hrs by Western blot analysis; type: functional, cell-based
[6] = tested on: HCT-116; test: Induction of cell cycle arrest in human HCT-116 cells assessed as accumulation of cells at G0/G1 phase at 1 uM by RNase/PI staining based flow cytometry analysis (reference value: 33.08 %); type: functional
[7] = tested on: HCT-116; test: Induction of apoptosis in human HCT-116 cells assessed as necrotic cells at 5 uM preincubated with Z-VAD-FMK for 1 hr followed by compound addition and measured after 24 hrs by Annexin V-FITC/PI staining based flow cytometric analysis (reference value: 0.34 %); type: functional
[8] = tested on: HCT-116; test: Induction of apoptosis in human HCT-116 cells assessed as late apoptotic cells at 5 uM incubated for 24 hrs by Annexin V-FITC/PI staining based flow cytometric analysis (reference value: 16.9 %); type: functional
[9] = tested on: HCT-116; test: Antitumor activity against human HCT-116 cells xenografted in athymic nude BALB/c mouse assessed as induction of autophagy by measuring reduction in p62 expression in tumor at 15 mg/kg, ip administered every other day and measured after 14 days by immunohistochemistry analysis; type: functional, organism-based; settings: time 14.0 day
[10] = tested on: HCT-116; test: Antitumor activity against human HCT-116 cells xenografted in athymic nude BALB/c mouse assessed as induction of apoptosis by measuring increase in cleaved PARP expression in tumor at 15 mg/kg, ip administered every other day and measured after 14 days by immunohistochemistry analysis; type: functional, organism-based; settings: time 14.0 day
[11] = tested on: HT-29; test: Induction of cell cycle arrest in human HT-29 cells assessed as accumulation of cells at S phase at 1 uM by RNase/PI staining based flow cytometry analysis (reference value: 39.34%); type: functional
[12] = tested on: HCT-116; test: Induction of apoptosis in human HCT-116 cells assessed as late apoptotic cells at 1 uM incubated for 24 hrs by Annexin V-FITC/PI staining based flow cytometric analysis (reference value: 2.9 %); type: functional
[13] = tested on: HCT-116; test: Induction of apoptosis in human HCT-116 cells assessed as necrotic cells at 1 uM incubated for 24 hrs by Annexin V-FITC/PI staining based flow cytometric analysis (reference value: 1.1 %); type: functional
[14] = tested on: Mus musculus; test: In vivo inhibition of NFkappaB activation in LPS-induced BALB/c mouse model of endotoxin shock assessed as inhibition of TNF-alpha mRNA expression in liver at 5 mg/kg, ip pretreated for 4 hrs followed by LPS stimulation for 1 hr by RT-PCR analysis; type: functional, organism-based; settings: time 5.0 hrs
[15] = tested on: HT-29; test: Cytotoxicity against human HT-29 cells assessed as inhibition of cell growth incubated for 24 hrs by SRB assay; type: functional, cell-based; settings: HT-29, 24 h
[16] = tested on: HCT-116; test: Induction of apoptosis in human HCT-116 cells assessed as early apoptotic cells at 0.25 uM incubated for 24 hrs by Annexin V-FITC/PI staining based flow cytometric analysis (reference value: 7.22 %); type: functional
[17] = target: Nuclear factor NF-kappa-B complex (Homo sapiens) (UniProt Q00653+P19838+Q04206); test: Inhibition of TNF-alpha induced NFkappaB activation in human HT-29 cells assessed as downregulation of MCP-1 gene expression pretreated for 24 hrs followed by TNFalpha stimulation and measured after 2 hrs by quantitative RT-PCR analysis; type: cell-based; settings: dose 1-10 µM, time 26.0 hrs
Sequence of Nuclear factor NF-kappa-B complex (Homo sapiens) (P19838 whole entry, looked up): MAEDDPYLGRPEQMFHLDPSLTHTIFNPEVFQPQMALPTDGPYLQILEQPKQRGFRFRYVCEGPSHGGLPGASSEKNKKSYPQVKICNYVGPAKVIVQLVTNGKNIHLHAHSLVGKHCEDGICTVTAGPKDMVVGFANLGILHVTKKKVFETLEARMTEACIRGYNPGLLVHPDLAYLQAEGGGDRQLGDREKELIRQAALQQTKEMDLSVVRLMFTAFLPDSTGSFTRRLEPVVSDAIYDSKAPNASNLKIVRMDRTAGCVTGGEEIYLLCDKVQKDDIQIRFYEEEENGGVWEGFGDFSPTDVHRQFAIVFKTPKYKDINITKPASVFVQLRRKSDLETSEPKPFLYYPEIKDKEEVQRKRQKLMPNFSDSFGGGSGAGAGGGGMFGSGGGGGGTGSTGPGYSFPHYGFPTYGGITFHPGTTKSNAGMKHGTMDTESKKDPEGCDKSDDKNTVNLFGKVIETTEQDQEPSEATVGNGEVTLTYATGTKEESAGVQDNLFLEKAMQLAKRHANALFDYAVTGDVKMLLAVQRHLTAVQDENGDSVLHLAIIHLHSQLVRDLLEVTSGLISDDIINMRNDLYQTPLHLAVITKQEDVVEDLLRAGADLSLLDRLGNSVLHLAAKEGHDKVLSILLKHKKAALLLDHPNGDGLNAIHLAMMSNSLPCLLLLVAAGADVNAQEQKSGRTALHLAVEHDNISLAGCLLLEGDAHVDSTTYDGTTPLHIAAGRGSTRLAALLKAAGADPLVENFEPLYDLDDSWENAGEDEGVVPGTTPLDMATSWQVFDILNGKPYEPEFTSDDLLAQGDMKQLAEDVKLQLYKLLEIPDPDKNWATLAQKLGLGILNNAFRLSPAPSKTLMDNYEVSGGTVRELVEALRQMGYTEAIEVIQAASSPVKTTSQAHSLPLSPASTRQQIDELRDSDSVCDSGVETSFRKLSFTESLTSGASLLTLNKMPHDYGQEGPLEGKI
Sequence of Nuclear factor NF-kappa-B complex (Homo sapiens) (Q00653 whole entry, looked up): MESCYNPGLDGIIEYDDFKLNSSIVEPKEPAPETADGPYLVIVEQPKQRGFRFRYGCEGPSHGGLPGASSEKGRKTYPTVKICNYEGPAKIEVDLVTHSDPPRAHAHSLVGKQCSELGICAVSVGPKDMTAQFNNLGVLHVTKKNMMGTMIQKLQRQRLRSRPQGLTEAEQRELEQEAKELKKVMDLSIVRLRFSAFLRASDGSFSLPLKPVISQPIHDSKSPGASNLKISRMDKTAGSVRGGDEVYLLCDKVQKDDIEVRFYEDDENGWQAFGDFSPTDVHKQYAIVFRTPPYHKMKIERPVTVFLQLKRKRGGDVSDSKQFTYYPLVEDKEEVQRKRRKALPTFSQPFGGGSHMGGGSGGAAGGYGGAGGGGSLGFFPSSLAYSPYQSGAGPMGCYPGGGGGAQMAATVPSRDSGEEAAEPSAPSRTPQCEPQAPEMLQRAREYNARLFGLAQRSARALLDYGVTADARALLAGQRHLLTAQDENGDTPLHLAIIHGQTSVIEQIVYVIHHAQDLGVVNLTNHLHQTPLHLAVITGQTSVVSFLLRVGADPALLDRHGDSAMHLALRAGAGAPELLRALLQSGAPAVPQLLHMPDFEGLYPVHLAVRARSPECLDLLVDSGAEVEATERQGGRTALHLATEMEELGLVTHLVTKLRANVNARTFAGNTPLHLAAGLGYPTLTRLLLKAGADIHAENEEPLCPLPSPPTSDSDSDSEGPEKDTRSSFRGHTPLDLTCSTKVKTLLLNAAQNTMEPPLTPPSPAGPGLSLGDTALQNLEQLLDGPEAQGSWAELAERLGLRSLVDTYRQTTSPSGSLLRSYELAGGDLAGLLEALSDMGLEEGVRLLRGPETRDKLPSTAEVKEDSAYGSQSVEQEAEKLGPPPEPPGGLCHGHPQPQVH
Sequence of Nuclear factor NF-kappa-B complex (Homo sapiens) (Q04206 whole entry, looked up): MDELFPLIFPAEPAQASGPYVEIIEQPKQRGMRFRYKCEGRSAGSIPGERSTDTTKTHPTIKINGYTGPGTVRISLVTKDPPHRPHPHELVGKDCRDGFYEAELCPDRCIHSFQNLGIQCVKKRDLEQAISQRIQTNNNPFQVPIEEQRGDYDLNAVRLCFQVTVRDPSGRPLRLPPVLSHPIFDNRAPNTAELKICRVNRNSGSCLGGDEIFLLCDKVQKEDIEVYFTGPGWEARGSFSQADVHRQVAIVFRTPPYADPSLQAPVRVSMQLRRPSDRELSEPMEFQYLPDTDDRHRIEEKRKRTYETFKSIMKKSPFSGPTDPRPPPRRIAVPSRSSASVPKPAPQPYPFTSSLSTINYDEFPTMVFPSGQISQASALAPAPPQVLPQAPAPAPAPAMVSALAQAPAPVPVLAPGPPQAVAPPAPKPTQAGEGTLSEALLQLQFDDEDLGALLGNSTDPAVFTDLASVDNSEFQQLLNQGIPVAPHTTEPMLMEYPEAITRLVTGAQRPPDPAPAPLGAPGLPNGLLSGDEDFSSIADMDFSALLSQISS

[18] = tested on: Mus musculus; test: In vivo inhibition of NFkappaB activation in athymic BALB/c mouse xenografted with human HCT-116 cells assessed as reduction in E-selectin gene expression in tumor at 15 mg/kg, ip administered every other day and measured after 14 days by qRT-PCR analysis; type: functional, organism-based; settings: time 14.0 day
[19] = tested on: SW480; test: Cytotoxicity against human SW480 cells assessed as decrease in cell viability incubated for 48 hrs by SRB assay; type: functional, cell-based; settings: SW480, 48 h
[20] = tested on: Mus musculus; test: In vivo inhibition of NFkappaB activation in athymic BALB/c mouse xenografted with human HCT-116 cells assessed as reduction in A20 gene expression in tumor at 15 mg/kg, ip administered every other day and measured after 14 days by qRT-PCR analysis; type: functional, organism-based; settings: time 14.0 day
[21] = tested on: HT-29; test: Induction of cell cycle arrest in human HT-29 cells assessed as accumulation of cells at G2/M phase at 10 uM by RNase/PI staining based flow cytometry analysis (reference value: 9.93 %); type: functional
[22] = tested on: HT-29; test: Induction of apoptosis in human HT-29 cells assessed as necrotic cells at 5 uM incubated for 24 hrs by Annexin V-FITC/PI staining based flow cytometric analysis (reference value: 0.14 %); type: functional
[23] = tested on: Mus musculus; test: (§1) Anti-inflammatory activity in AOM/DSS-induced BALB/c mouse model inflammatory bowel disease assessed as reduction in tumor load at 5 to 10 mg/kg, ip pretreated with AOM for 7 days further replaced with DSS for 7 days and repeated for 2 times followed by every 2 days compound treatment for […] starting from day 50 and measured once a week; type: functional, organism-based; settings: dose 5-10 mg/kg, time 21.0 day
[24] = tested on: HCT-116; test: Induction of apoptosis in human HCT-116 cells assessed as viable cells at 5 uM incubated for 24 hrs by Annexin V-FITC/PI staining based flow cytometric analysis (reference value: 74.3 %); type: functional; settings: read-out: Activity
[25] = tested on: HT-29; test: Antitumor activity against human HT-29 cells xenografted in athymic nude BALB/c mouse assessed as induction of autophagy by measuring increase in LC3B expression in tumor at 15 mg/kg, ip administered every other day and measured after 14 days by immunohistochemistry analysis; type: functional, organism-based; settings: time 14.0 day
[26] = tested on: HCT-116; test: Induction of cell cycle arrest in human HCT-116 cells assessed as accumulation of cells at G0/G1 phase at 5 uM by RNase/PI staining based flow cytometry analysis (reference value: 33.08 %); type: functional
[27] = tested on: Cell membrane; test: Disruption of mitochondrial membrane potential in human HCT-116 cells at 0.25 to 10 uM measured after 24 hrs by JC-1 staining based flow cytometry analysis; type: subcellular; settings: dose 0.25-10 µM
[28] = tested on: HT-29; test: Induction of apoptosis in human HT-29 cells assessed as early apoptotic cells at 0.5 uM incubated for 24 hrs by Annexin V-FITC/PI staining based flow cytometric analysis (reference value: 5.29 %); type: functional
[29] = tested on: Mus musculus; test: as §1, with “body weight” for “tumor load”, “50 by H” for “50”, “E staining based analysis” for “measured once a week”; type: functional, organism-based; settings: dose 5-10 mg/kg, time 21.0 day
[30] = tested on: HT-29; test: Induction of autophagy in human HT-29 cells assessed as increase in LC3I to LC3II conversion at 1 to 10 uM incubated for 24 hrs by Western blotting analysis; type: functional, cell-based; settings: dose 1-10 µM

C[C@@H]1CC[C@H]2[C@H](C(=O)c3c(O)c([C@@]4(O)CC[C@@H](O)[C@H]5O[C@H]54)cn(O)c3=O)[C@H](C)C=C[C@@H]2C1
Activity [1]: Non-Toxic
Activity [2]: Non-Toxic
Activity [3]: 0.1%
Cmax [4]: 13200 ng/mL
Activity [5]: Active
Activity [6]: 36.23%
Activity [7]: 0.39%
Activity [8]: 78.5%
Activity [9]: Active
Activity [10]: Active
Activity [11]: 23.75%
Activity [12]: 47%
Activity [13]: 2.41%
inhibition [14]: Active
IC50 [15]: 610 nM
Activity [16]: 8.93%
inhibition [17]: Dose-Dependent Effect
inhibition [18]: Active
IC50 [19]: 570 nM
inhibition [20]: Active
Activity [21]: 0.78%
Activity [22]: 0.22%
Activity [23]: Active
viability at 5 µM [24]: 15.6%
Activity [25]: Active
Activity [26]: 44.31%
Activity [27]: Active
Activity [28]: 37.6%
Activity [29]: Active
Activity [30]: Active
